According to patent US20180155757A1, “IDENTIFICATION OF BACTERIA THAT ARE RESISTANT TO CARBAPENEMS BY MEMBRANE IMPERVIOUSNESS” (BIOMÉRIEUX, priority 2015, published 2018):
Where two headings read alike, the source gives them in different places.

System: carbapenem-resistant bacterial strains
From the text: For each strain tested, each PMBN concentration and each indicator carbapenem, the MIC measured is compared to that obtained in the absence of PMBN. In the light of the possible difference in MIC values, a prognosis for the mechanism of resistance developed by the strain tested is established by applying the following general premise: A decrease in MICIM/ETP in the presence of PMBN is an indication of carbapenem resistance by membrane impermeability. In any other case, another mechanism of resistance is implicated.
For the purposes of verifying the accuracy of the prognoses established and the relevance of the general premise mentioned above: • each strain was tested by Western blot with the view to detection of porins (in the case in point, of the OmpF and OmpC isoforms), and • for some of the strains tested, in particular those for which there remains a doubt as to the mechanism of resistance developed (prognosis established in contradiction with the results of the porin detection by Western blot), a test for detecting carbapenemases by means of the RAPIDEC® CARBA NP kit (bioMérieux, France) was also carried out.
As regards the results thus obtained, the characterization of the strains termed carbapenem resistant by membrane impermeability is established either by the absence of porins detected by Western blot, or by carbapenem resistance that is not linked to the presence of carbapenemase, verified by a molecular method (PCR) and/or by a phenotypic method (RAPIDEC® CARBA NP).
A second method of interpretation of the results compiled in table 3 is proposed here. The prognosis system is based on the following “refined” premise: A decrease in MICIM/ETP, in the presence of PMBN, by at least a factor of 4 (that is to say with a difference in MIC of 2 doubling dilutions), is the signal of carbapenem resistance by membrane impermeability. If not, another mechanism of resistance is implicated.

SMILES	reliability of a negative prognosis with regard to resistance by membrane impermeability (general premise) [%]	reliability of a positive prognosis with regard to resistance by membrane impermeability (general premise) [%]	reliability of a negative prognosis with regard to resistance by membrane impermeability (refined premise) [%]	reliability of a positive prognosis with regard to resistance by membrane impermeability (refined premise) [%]
C[C@@H](O)[C@H]1C(=O)N2C(C(=O)O)=C(S[C@@H]3CN[C@H](C(=O)Nc4cccc(C(=O)O)c4)C3)[C@H](C)[C@H]12 [ETP, ertapenem]	90	66	85	86
C[C@@H](O)[C@H]1C(=O)N2C(C(=O)O)=C(SCCN=CN)C[C@H]12 [IM, imipenem]	87	73	77	95
